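Where inhibition never reached the appropriate level, the endpoint shown equals the highest concentration tested. Otherwise, values were interpolated linearly from a five-concentration, 48-hour dose response in 96-well plates. Abbreviation: GI50, concentration required for 50% inhibition of growth.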 Activity calls are given as the source filed them. Cut-off read from the data, not from the text of the source: active = GI50 up to about 1.1 µM and inactive = higher.
Columns and labels:
Assay in all cases: NCI tumour cell line growth inhibition, 48 h
K562 = test system: K562
SK-MEL-2 = test system: SK-MEL-2
HCC 2998 = test system: HCC 2998
SK-MEL-28 = test system: SK-MEL-28
SK-MEL-5 = test system: SK-MEL-5
HCT-15 = test system: HCT-15
SW-620 = test system: SW-620
NCI-H23 = test system: NCI-H23
OVCAR-3 = test system: OVCAR-3
SF-268 = test system: SF-268
HT-29 = test system: HT-29
Malme-3M = test system: Malme-3M
EKVX = test system: EKVX
HCT-116 = test system: HCT-116
NCI-H522 = test system: NCI-H522
NCI-H226 = test system: NCI-H226

Compound | GI50 (K562) | GI50 (SK-MEL-2) | GI50 (HCC 2998) | GI50 (SK-MEL-28) | GI50 (SK-MEL-5) | GI50 (HCT-15) [µM] | GI50 (SW-620) | GI50 (NCI-H23) | GI50 (OVCAR-3) | GI50 (SF-268) | GI50 (HT-29) | GI50 (Malme-3M) | GI50 (EKVX) | GI50 (HCT-116) | GI50 (NCI-H522) | GI50 (NCI-H226)
CCOc1ccc(C2=NN(CC)C(=O)C(C3C(=O)N(c4ccccc4)N=C3C)C2)cc1 (configuration not stated) | > 100 µM (inactive) | > 100 µM (inactive) | > 100 µM (inactive) | > 100 µM (inactive) | > 100 µM (inactive) | > 100 | > 100 µM (inactive) | > 100 µM (inactive) | > 100 µM (inactive) | > 100 µM (inactive) | > 100 µM (inactive) | > 100 µM (inactive) | > 100 µM (inactive) | > 100 µM (inactive) | > 100 µM (inactive) | > 100 µM (inactive)
COC(=O)C1=C(c2cc(OC)c(OC)c(OC)c2)OC(c2ccc3c(c2)OCO3)C1 (configuration not stated) | 9.48 µM (inactive) | – | 28.4 µM (inactive) | 48 µM (inactive) | 19.1 µM (inactive) | 19.1 | 18.1 µM (inactive) | 25.7 µM (inactive) | 26.9 µM (inactive) | 56.5 µM (inactive) | 27.2 µM (inactive) | 72.1 µM (inactive) | 27 µM (inactive) | 32.9 µM (inactive) | – | 56 µM (inactive)
N#CC(C(=O)/C(=N\NC(N)=O)C(C#N)c1ccc(Cl)cc1)c1ccc(Cl)cc1 (configuration not stated) | > 100 µM (inactive) | > 100 µM (inactive) | – | > 100 µM (inactive) | > 100 µM (inactive) | > 100 | > 100 µM (inactive) | > 100 µM (inactive) | > 100 µM (inactive) | > 100 µM (inactive) | > 100 µM (inactive) | > 100 µM (inactive) | > 100 µM (inactive) | > 100 µM (inactive) | > 100 µM (inactive) | > 100 µM (inactive)
c1ccc(C2(c3ccccc3)SSC3(S2)C2CC4CC(C2)CC3C4)cc1 (configuration not stated) | > 100 µM (inactive) | > 100 µM (inactive) | > 100 µM (inactive) | > 100 µM (inactive) | > 100 µM (inactive) | > 100 | > 100 µM (inactive) | > 100 µM (inactive) | – | > 100 µM (inactive) | > 100 µM (inactive) | > 100 µM (inactive) | > 100 µM (inactive) | > 100 µM (inactive) | – | –
Cc1cn(C2CC(OC3CCCCO3)C(CO)O2)c(=O)[nH]c1=O (configuration not stated) | > 100 µM (inactive) | > 100 µM (inactive) | > 100 µM (inactive) | > 100 µM (inactive) | – | > 100 | > 100 µM (inactive) | > 100 µM (inactive) | > 100 µM (inactive) | > 100 µM (inactive) | > 100 µM (inactive) | > 100 µM (inactive) | > 100 µM (inactive) | > 100 µM (inactive) | > 100 µM (inactive) | > 100 µM (inactive)
O=C(CCc1n[nH]c(=S)o1)Nc1cc(Cl)ccc1Cl | 23.9 µM (inactive) | – | > 100 µM (inactive) | > 100 µM (inactive) | > 100 µM (inactive) | 20.7 | 15.3 µM (inactive) | > 100 µM (inactive) | > 100 µM (inactive) | 56.6 µM (inactive) | 52.8 µM (inactive) | > 100 µM (inactive) | > 100 µM (inactive) | 16.1 µM (inactive) | – | > 100 µM (inactive)
CC(C)C(/C=C/c1ccc(Br)cc1)=N\NC(N)=O | > 100 µM (inactive) | > 100 µM (inactive) | 12.3 µM (inactive) | > 100 µM (inactive) | > 100 µM (inactive) | > 100 | > 100 µM (inactive) | > 100 µM (inactive) | – | > 100 µM (inactive) | > 100 µM (inactive) | – | > 100 µM (inactive) | > 100 µM (inactive) | 70.3 µM (inactive) | > 100 µM (inactive)
CNC(=S)NC1CCCCC1NC(=S)NC (configuration not stated) | > 100 µM (inactive) | > 100 µM (inactive) | > 100 µM (inactive) | > 100 µM (inactive) | > 100 µM (inactive) | > 100 | > 100 µM (inactive) | > 100 µM (inactive) | > 100 µM (inactive) | > 100 µM (inactive) | > 100 µM (inactive) | > 100 µM (inactive) | > 100 µM (inactive) | > 100 µM (inactive) | > 100 µM (inactive) | > 100 µM (inactive)
CN(C)CC1CCC/C1=N\O (configuration not stated) | > 100 µM (inactive) | > 100 µM (inactive) | > 100 µM (inactive) | > 100 µM (inactive) | > 100 µM (inactive) | > 100 | > 100 µM (inactive) | > 100 µM (inactive) | > 100 µM (inactive) | > 100 µM (inactive) | > 100 µM (inactive) | – | – | > 100 µM (inactive) | > 100 µM (inactive) | > 100 µM (inactive)
Nc1ncnc2c1ncn2CCOC(c1ccccc1)P(=O)(O)O (configuration not stated) | – | > 100 µM (inactive) | > 100 µM (inactive) | > 100 µM (inactive) | > 100 µM (inactive) | > 100 | > 100 µM (inactive) | > 100 µM (inactive) | > 100 µM (inactive) | > 100 µM (inactive) | > 100 µM (inactive) | > 100 µM (inactive) | > 100 µM (inactive) | > 100 µM (inactive) | > 100 µM (inactive) | > 100 µM (inactive)
CC12CC3C(CC1SCC(=O)O2)C3(C)C (configuration not stated) | > 100 µM (inactive) | > 100 µM (inactive) | > 100 µM (inactive) | > 100 µM (inactive) | > 100 µM (inactive) | > 100 | – | > 100 µM (inactive) | > 100 µM (inactive) | > 100 µM (inactive) | > 100 µM (inactive) | > 100 µM (inactive) | > 100 µM (inactive) | > 100 µM (inactive) | – | –
O=C(O)/C(Cl)=C(\Cl)C(=O)NC1C2CC3CC(C2)CC1C3 (configuration not stated) | > 100 µM (inactive) | – | > 100 µM (inactive) | > 100 µM (inactive) | > 100 µM (inactive) | > 100 | > 100 µM (inactive) | > 100 µM (inactive) | > 100 µM (inactive) | > 100 µM (inactive) | > 100 µM (inactive) | > 100 µM (inactive) | > 100 µM (inactive) | > 100 µM (inactive) | > 100 µM (inactive) | > 100 µM (inactive)
CC(=O)Nc1ccc(-c2nnc(SCC(=O)Nc3ccc([N+](=O)[O-])cc3)o2)cc1 | 36.4 µM (inactive) | 14.3 µM (inactive) | – | 14.3 µM (inactive) | 13.1 µM (inactive) | 12.9 | 16.2 µM (inactive) | 12.2 µM (inactive) | 14.5 µM (inactive) | 14.1 µM (inactive) | 13.4 µM (inactive) | 14 µM (inactive) | – | 12.5 µM (inactive) | 7.85 µM (inactive) | 15.7 µM (inactive)
CCc1ccc(/C(C)=N/NC(N)=S)cc1 | 57.3 µM (inactive) | > 100 µM (inactive) | > 100 µM (inactive) | > 100 µM (inactive) | 78.2 µM (inactive) | – | – | > 100 µM (inactive) | > 100 µM (inactive) | > 100 µM (inactive) | 90.4 µM (inactive) | 25.8 µM (inactive) | > 100 µM (inactive) | > 100 µM (inactive) | – | –
Cc1ccc(C2=C(c3ccc(C)cc3)C(c3ccc(C)cc3)=C(c3ccc(C)cc3)C2=O)cc1 | > 100 µM (inactive) | > 100 µM (inactive) | – | > 100 µM (inactive) | > 100 µM (inactive) | > 100 | > 100 µM (inactive) | > 100 µM (inactive) | – | > 100 µM (inactive) | > 100 µM (inactive) | > 100 µM (inactive) | > 100 µM (inactive) | > 100 µM (inactive) | > 100 µM (inactive) | > 100 µM (inactive)
COc1c(Br)cc(Br)c(OC)c1-c1ccc[nH]1 | 22.3 µM (inactive) | 45.3 µM (inactive) | – | > 100 µM (inactive) | > 100 µM (inactive) | 55.8 | 35 µM (inactive) | > 100 µM (inactive) | > 100 µM (inactive) | > 100 µM (inactive) | 38.8 µM (inactive) | – | > 100 µM (inactive) | 97.3 µM (inactive) | 55.1 µM (inactive) | 43.9 µM (inactive)
COC(=O)c1nc(-c2ccc(Cl)c(Cl)c2)nc2ccc(Cl)cc12 | > 10 µM (inactive) | > 100 µM (inactive) | > 100 µM (inactive) | > 100 µM (inactive) | > 100 µM (inactive) | – | > 100 µM (inactive) | 68.5 µM (inactive) | > 10 µM (inactive) | 92.9 µM (inactive) | > 100 µM (inactive) | > 100 µM (inactive) | 59.7 µM (inactive) | 18.4 µM (inactive) | > 10 µM (inactive) | –
CCc1cccc(C)c1N1C(=O)C(=O)C(c2nc3ccccc3o2)/C(=N/NC(=S)NN)C1=O (configuration not stated) | > 100 µM (inactive) | > 100 µM (inactive) | – | > 100 µM (inactive) | > 100 µM (inactive) | > 100 | > 100 µM (inactive) | > 100 µM (inactive) | > 100 µM (inactive) | > 100 µM (inactive) | > 100 µM (inactive) | > 100 µM (inactive) | > 100 µM (inactive) | > 100 µM (inactive) | > 100 µM (inactive) | > 100 µM (inactive)
C[Si](C)(C)/C=C\CCO | > 100 µM (inactive) | > 100 µM (inactive) | > 100 µM (inactive) | > 100 µM (inactive) | > 100 µM (inactive) | > 100 | > 100 µM (inactive) | > 100 µM (inactive) | > 100 µM (inactive) | > 100 µM (inactive) | > 100 µM (inactive) | > 100 µM (inactive) | > 100 µM (inactive) | > 100 µM (inactive) | > 100 µM (inactive) | –
